Reference: ChEMBL document CHEMBL1130368, “Potent carboxylate inhibitors of stromelysin containing P2 piperazic acids and P1 biaryl moeities” (Bioorg Med Chem Lett, 1997)
pIC50, pKi: −log10 of the molar value.

Molecular target: Stromelysin-1 (Homo sapiens, UniProt P08254)
Test: Inhibition of Matrix metalloprotease-3 by MCA peptide assay

Sequence of Stromelysin-1 (P08254 whole entry): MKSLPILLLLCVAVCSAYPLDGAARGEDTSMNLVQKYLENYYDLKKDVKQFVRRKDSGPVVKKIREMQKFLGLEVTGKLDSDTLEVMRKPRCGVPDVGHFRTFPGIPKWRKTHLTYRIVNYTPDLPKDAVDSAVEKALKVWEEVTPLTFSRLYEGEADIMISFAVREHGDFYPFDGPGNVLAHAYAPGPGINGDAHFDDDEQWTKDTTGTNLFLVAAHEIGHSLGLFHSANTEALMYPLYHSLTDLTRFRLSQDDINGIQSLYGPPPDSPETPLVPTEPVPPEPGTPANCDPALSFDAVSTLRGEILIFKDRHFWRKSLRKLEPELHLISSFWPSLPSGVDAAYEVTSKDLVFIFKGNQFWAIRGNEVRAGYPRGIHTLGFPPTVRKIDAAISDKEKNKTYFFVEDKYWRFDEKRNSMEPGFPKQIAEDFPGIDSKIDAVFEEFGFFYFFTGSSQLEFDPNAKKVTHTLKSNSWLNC

Row | pKi | pIC50 | SMILES
1 | – | < 3.70 | CNC(=O)[C@@H]1CCCNN1C(=O)[C@H](CCOc1ccc(C(C)C)cc1)N[C@H](C)C(=O)O
2 | 7.11 | – | CNC(=O)[C@@H]1CCCNN1C(=O)[C@H](CCOc1ccc(-c2ccccc2)cc1)N[C@H](C)C(=O)O
3 | 6.26 | – | CCCCc1ccc(OCC[C@H](N[C@H](C)C(=O)O)C(=O)N2NCCC[C@H]2C(=O)NC)cc1
4 | 7.38 | – | CCCC[C@@H](C[C@@H](CCc1ccc(-c2ccccc2)cc1)C(=O)N1NCCC[C@H]1C(=O)NC)C(=O)O
5 | 6.26 | – | CNC(=O)[C@@H]1CCCNN1C(=O)[C@H](CCOc1ccc(Cc2ccccc2)cc1)N[C@H](C)C(=O)O
6 | – | < 3.70 | CNC(=O)[C@@H]1CCCNN1C(=O)[C@H](CCOc1ccc(CC2CCCC2)cc1)N[C@H](C)C(=O)O

The next lines start with the compound.

Row | SMILES | pKi | pIC50
7 | CCCC[C@@H](C[C@@H](CCc1ccc(-c2ccccc2)cc1)C(=O)N[C@@H](Cc1ccc(OC)cc1)C(=O)NC)C(=O)O | 7.68 | –
8 | CNC(=O)[C@@H]1CCCNN1C(=O)[C@H](CC(C)C)[C@H](C)C(=O)NO | – | 7.52
9 | CNC(=O)[C@H](Cc1ccc(OC)cc1)NC(=O)[C@H](CCc1ccccc1)C[C@H](C)C(=O)O | – | 4.26
10 | CNC(=O)[C@H](Cc1ccc(OC)cc1)NC(=O)[C@H](CCc1ccc(-c2ccccc2)cc1)C[C@H](C)C(=O)O | – | 7.09
